pIC50: −log10 of the molar value.
Tests used:
[1] = test system: 5'-flanking region of the rat Reg gene; experiment: Reg promoter/luciferase reporter assay in RINm5F cells; format: cell-based
Protocol: A 2,303-bp fragment containing the 5′-flanking region of Reg gene was fused to the luciferase gene and transfected into RINm5F β-cells.
Specifically, luciferase reporter gene constructs were generated as described in Miyashita, H. et al. (1994) Biochim. Biophys. Acta, 1219, 241-243. RINm5F cells were seeded at 1×10^5 cells/well in 24-well dish. After 48 h, 3.0 μg of test plasmid and 0.2 μg of pCMV-SPORT β-gal (Life Technologies, Inc.) were transfected by lipofection (Felgner, J. H. et al. (1994) J. Biol. Chem., 269, 2550-2561) using DMRIE-C™ (Life Technologies, Inc.). After 24 h, the medium of each dish was replaced with fresh medium containing stimulants and incubated further for 24 h. Cells were harvested in 1 ml of ice-cold phosphate-buffered saline (PBS), washed twice with PBS, and extracts were prepared in extraction buffer (0.1 M potassium phosphate, pH 6.8, 1 mM DTT). The protein concentration was determined using a Coomassie reagent kit (Pierce) and bovine serum albumin as a standard. Luciferase activity was determined by a chemiluminescence substrate using a Pica Gene™ Luminescence Kit (Toyo Ink Mfg. Co, Ltd., Tokyo, Japan). β-galactosidase activity was determined using Aurora™ GAL-XE (ICN).

[2] = target: T1, poly(ADP-ribose) synthetase/polymerase (PARP) (Rattus norvegicus, UniProt P27008); experiment: GMSA binding reaction of RINm5F nuclear extracts, effects of ADP-ribosylation; format: biochemical; conditions: 1 mM β-NAD+ in the GMSA binding reaction; read-out: concentrations of half maximal inhibition (quenching of the effect of β-NAD+ on the GMSA band)
T1 construct: Nuclear extracts from RINm5F cells were prepared as described; endogenous in cells; host or cells: RINm5F (rat insulinoma) nuclear extract
Protocol: The nuclear extract (10 μg) was incubated in a final volume of 20 μl of buffer containing 20 mM Tris-HCl (pH 7.9), 2 mM MgCl2, 50 mM NaCl, 2 mM EDTA, 10% glycerol, 0.1% Nonidet P-40, 1 mM DTT, 50 μg/ml bovine serum albumin and 1 μg of poly(dI-dC). After incubation for 10 min at room temperature, 2.5 pmol of double-stranded DNA, previously labeled by an exchange reaction using MEGALABEL (Takara Shuzo) and [γ-^32P]ATP (Amersham Pharmacia Biotech), were added and incubated for 30 min at room temperature, then the binding reactions were resolved on pre-run 6% acrylamide gel. […] After electrophoresis, DNA/proteins were electrophoretically transferred to a PolyScreen™ PVDF membrane (NEN).
Poly(ADP-ribosyl)ation of nuclear proteins was performed in the same condition as GMSA in the presence of 62 nM [adenylate-^32P]NAD^+ (2×10^6 cpm, NEN). The ADP-ribosylated proteins were precipitated by the addition of 9 volume of acetone, separated by SDS-PAGE (12.5%) and autoradiographed.

Reg gene = experiment: RT-PCR of Reg gene expression in RINm5F cells; format: cell-based, rat; conditions: 24 h with stimulants
Protocol: The Reg gene expression was analyzed by RT-PCR. The cells were harvested after 24 h of culturing in a medium supplemented with stimulants, and total RNA was prepared using cesium trifluoroacetate as described in Takasawa, S. et al. (1993) J. Biol. Chem., 268, 26052-26054. RT-PCR was performed using primers corresponding to nucleotides 23 to 43 and 572 to 593 of rat Reg mRNA (Terazono, K. et al. (1988) J. Biol. Chem., 263, 2111-2114).

[3] = nicotinamide added to IL-6/dexamethasone

T1 sequence (P27008 whole entry): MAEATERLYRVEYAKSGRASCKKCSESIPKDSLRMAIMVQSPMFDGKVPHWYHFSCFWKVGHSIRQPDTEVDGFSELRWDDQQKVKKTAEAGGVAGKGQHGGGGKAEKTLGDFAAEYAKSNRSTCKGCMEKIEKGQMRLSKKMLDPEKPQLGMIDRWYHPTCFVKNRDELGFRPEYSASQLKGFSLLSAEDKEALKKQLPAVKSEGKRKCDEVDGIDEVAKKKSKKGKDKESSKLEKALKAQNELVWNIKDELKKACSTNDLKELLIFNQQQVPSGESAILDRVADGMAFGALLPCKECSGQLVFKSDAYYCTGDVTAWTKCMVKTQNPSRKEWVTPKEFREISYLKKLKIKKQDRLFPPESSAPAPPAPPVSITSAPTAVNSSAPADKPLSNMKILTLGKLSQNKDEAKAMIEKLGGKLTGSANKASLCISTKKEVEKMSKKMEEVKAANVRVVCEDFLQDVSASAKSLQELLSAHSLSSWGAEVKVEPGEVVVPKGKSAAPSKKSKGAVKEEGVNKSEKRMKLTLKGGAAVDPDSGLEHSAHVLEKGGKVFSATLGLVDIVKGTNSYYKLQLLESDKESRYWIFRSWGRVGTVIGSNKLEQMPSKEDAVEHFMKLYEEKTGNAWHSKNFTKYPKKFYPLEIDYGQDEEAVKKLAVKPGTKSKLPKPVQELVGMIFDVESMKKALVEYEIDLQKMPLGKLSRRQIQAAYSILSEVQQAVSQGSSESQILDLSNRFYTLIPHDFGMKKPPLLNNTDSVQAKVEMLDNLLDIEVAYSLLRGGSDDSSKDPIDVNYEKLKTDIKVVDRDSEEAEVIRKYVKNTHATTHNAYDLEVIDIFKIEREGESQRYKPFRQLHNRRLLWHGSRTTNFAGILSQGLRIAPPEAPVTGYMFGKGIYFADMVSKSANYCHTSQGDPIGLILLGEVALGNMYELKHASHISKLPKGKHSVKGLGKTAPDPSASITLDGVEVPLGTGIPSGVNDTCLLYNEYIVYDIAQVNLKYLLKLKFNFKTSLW

Which results are given for `NC(=O)c1cccnc1` [nicotinamide]?
luciferase activity (result in words) ([1]; 2,303-bp Reg 5'-flanking fragment, 24 h stimulation): ineffective; enhancement of IL-6/dexamethasone-induced transcription of Reg gene, "-70" construct [1, 3]: abolished; enhancement of IL-6/dexamethasone-induced transcription of Reg gene, -2,303 to -81 deletions [1, 3]: the enhancement was observed; pIC50 [2]: 3.60; Reg gene expression (Reg mRNA) (Reg gene): no effect on Reg expression

Source: patent US20060134063A1, “Agents for proliferating pancreatic beta-cells of the islets of langerhans, agents for suppressing apoptosis of said cells, and screening of candidate compounds for these agents” (priority 2000, published 2006)
